According to PubChem BioAssay AID330 (DTP/NCI, 2004):
Where “and” joins values, the source holds several entries; their conditions need not be identical. Equal entries are not always repeated. Toxic doses and inconclusive results are not listed. Rule for the calls: active = survival T/C of 150% or more; inactive = T/C below 125% in these data.

Test system: P388 leukemia ip, CD2F1 mice, survival T/C
Experiment: NCI In Vivo Anticancer Drug Screen. Data for tumor model P388 Leukemia (intraperitoneal) in CD2F1 (CDF1) mice
Details: endpoint: median survival time, higher = longer survival
In short: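 Mice carrying the transplanted tumor received test compound or vehicle. Survival was recorded in each group, and the value is the treated-group measurement divided by that of the vehicle-treated control group.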

[1] = dose: 100.0 mg/kg/injection, schedule: Q04DX003 (ip), vehicle: Klucel (hydroxypropylcellulose) (HPC)
[2] = dose: 200.0 mg/kg/injection, schedule: Q04DX003 (ip), vehicle: Klucel (hydroxypropylcellulose) (HPC)
[3] = dose: 50.0 mg/kg/injection, schedule: Q01DX005 (ip), vehicle: saline with Tween-80
[4] = dose: 100.0 mg/kg/injection, schedule: Q01DX005 (ip), vehicle: saline with Tween-80
[5] = dose: 100.0 mg/kg/injection, schedule: Q04DX003 (ip), vehicle: saline with Tween-80
[6] = dose: 200.0 mg/kg/injection, schedule: Q04DX003 (ip), vehicle: saline with Tween-80
[7] = dose: 50.0 mg/kg/injection, schedule: Q01DX009 (ip), vehicle: saline with Tween-80
[8] = dose: 100.0 mg/kg/injection, schedule: Q01DX009 (ip), vehicle: saline with Tween-80
[9] = dose: 50.0 mg/kg/injection, schedule: Q01DX009 (ip), vehicle: Klucel (hydroxypropylcellulose) (HPC)
[10] = dose: 100.0 mg/kg/injection, schedule: Q01DX009 (ip), vehicle: Klucel (hydroxypropylcellulose) (HPC)

Measured: T/C

[O-]c1c(Cl)c(Cl)c(O[P+](c2ccccc2)(c2ccccc2)c2ccccc2)c(Cl)c1Cl
inactive: dose: 6.25 mg/kg/injection, schedule: Q01DX009 (ip), vehicle: saline 108 % of control and 96 % of control | dose: 12.5 mg/kg/injection, schedule: Q01DX009 (ip), vehicle: saline 113 % of control and 97 % of control | dose: 25.0 mg/kg/injection, schedule: Q01DX009 (ip), vehicle: saline 108 % of control and 114 % of control and 92 % of control | dose: 50.0 mg/kg/injection, schedule: Q01DX009 (ip), vehicle: saline 113 % of control

COC(=O)C1CC(c2ccccc2)N(C(C)(C)C)O1 (stereo not given)
inactive: dose: 100.0 mg/kg/injection, schedule: Q04DX002 (ip), vehicle: saline with Tween-80 97 % of control | dose: 200.0 mg/kg/injection, schedule: Q04DX002 (ip), vehicle: saline with Tween-80 100 % of control | dose: 400.0 mg/kg/injection, schedule: Q04DX002 (ip), vehicle: saline with Tween-80 100 % of control

CN1CC(=O)N=C1N
inactive: [1] 100 % of control | [2] 100 % of control | dose: 400.0 mg/kg/injection, schedule: Q04DX003 (ip), vehicle: Klucel (hydroxypropylcellulose) (HPC) 105 % of control

[Ni]=[Se]
inactive: dose: 60.0 mg/kg/injection, schedule: Q01DX005 (ip), vehicle: saline 97 % of control | dose: 120.0 mg/kg/injection, schedule: Q01DX005 (ip), vehicle: saline 96 % of control | dose: 240.0 mg/kg/injection, schedule: Q01DX005 (ip), vehicle: saline 97 % of control

NC(N)=NS(=O)(=O)c1ccc(N=c2c3ccccc3n(Cc3ccccc3)c3ccccc23)cc1
inactive: [3] 97 % of control | [4] 98 % of control

CC1CCCCC1NC(=O)NCCOC(=O)OCCNC(=O)NC1CCCCC1C (stereo not given)
inactive: [5] 90 % of control | [6] 86 % of control | dose: 400.0 mg/kg/injection, schedule: Q04DX003 (ip), vehicle: saline with Tween-80 86 % of control

CC/C(=N\NS(=O)(=O)c1ccc(C)cc1)c1ccc(Br)cc1
inactive: dose: 100.0 mg/kg/injection, schedule: Q04DX002 (ip), vehicle: saline 100 % of control | dose: 200.0 mg/kg/injection, schedule: Q04DX002 (ip), vehicle: saline 105 % of control | dose: 400.0 mg/kg/injection, schedule: Q04DX002 (ip), vehicle: saline 96 % of control

N=c1c2ncn3c(=O)n(-c4ccccc4)c(nc(=O)n1-c1ccccc1)c23
inactive: dose: 60.0 mg/kg/injection, schedule: Q01DX005 (ip), vehicle: saline with Tween-80 101 % of control | dose: 120.0 mg/kg/injection, schedule: Q01DX005 (ip), vehicle: saline with Tween-80 100 % of control | dose: 240.0 mg/kg/injection, schedule: Q01DX005 (ip), vehicle: saline with Tween-80 98 % of control

Cn1c(=O)ccc2ccc(N(CCO)CCO)nc21
inactive: dose: 50.0 mg/kg/injection, schedule: Q04DX003 (ip), vehicle: saline with Tween-80 98 % of control | [5] 94 % of control | [6] 103 % of control

COC(=O)CC12CC3(C)CC(C)(C1)CC(CC(=O)OC)(C3)C2
inactive: [7] 99 % of control | [8] 99 % of control and 108 % of control | dose: 200.0 mg/kg/injection, schedule: Q01DX009 (ip), vehicle: saline with Tween-80 103 % of control and 113 % of control

O=C1OCCSCCOCCSCCOC(=O)c2cccc1n2
inactive: dose: 100.0 mg/kg/injection, schedule: Q01DX001 (ip), vehicle: Klucel (hydroxypropylcellulose) (HPC) 96 % of control | dose: 200.0 mg/kg/injection, schedule: Q01DX001 (ip), vehicle: Klucel (hydroxypropylcellulose) (HPC) 93 % of control | dose: 400.0 mg/kg/injection, schedule: Q01DX001 (ip), vehicle: Klucel (hydroxypropylcellulose) (HPC) 102 % of control

CCOc1c(N=Nc2ccccc2Cl)c(C)nn1C(=S)S
inactive: dose: 15.0 mg/kg/injection, schedule: Q01DX005 (ip), vehicle: Klucel + Tween-80 95 % of control | dose: 30.0 mg/kg/injection, schedule: Q01DX005 (ip), vehicle: Klucel + Tween-80 100 % of control | dose: 60.0 mg/kg/injection, schedule: Q01DX005 (ip), vehicle: Klucel + Tween-80 96 % of control

O=NN(CCSCCO)C(=O)NC1CCCCC1
inactive: dose: 6.25 mg/kg/injection, schedule: Q01DX009 (ip), vehicle: water 101 % of control | dose: 12.5 mg/kg/injection, schedule: Q01DX009 (ip), vehicle: water 100 % of control | dose: 25.0 mg/kg/injection, schedule: Q01DX009 (ip), vehicle: water 102 % of control | dose: 50.0 mg/kg/injection, schedule: Q01DX009 (ip), vehicle: water 109 % of control | dose: 100.0 mg/kg/injection, schedule: Q01DX009 (ip), vehicle: water 110 % of control | dose: 200.0 mg/kg/injection, schedule: Q01DX009 (ip), vehicle: water 107 % of control

CN1CCN(C2=C(Cl)C(=O)c3ccccc3C2=O)CC1
inactive: dose: 1.25 mg/kg/injection, schedule: Q01DX009 (ip), vehicle: saline 100 % of control | dose: 2.5 mg/kg/injection, schedule: Q01DX009 (ip), vehicle: saline 103 % of control | dose: 5.0 mg/kg/injection, schedule: Q01DX009 (ip), vehicle: saline 109 % of control

CC(C)CCCCCCCCCCCCC(O)CC(=O)O (stereo not given)
inactive: dose: 8.75 mg/kg/injection, schedule: Q01DX005 (ip), vehicle: Klucel + Tween-80 92 % of control | dose: 17.5 mg/kg/injection, schedule: Q01DX005 (ip), vehicle: Klucel + Tween-80 86 % of control | dose: 35.0 mg/kg/injection, schedule: Q01DX005 (ip), vehicle: Klucel + Tween-80 95 % of control

CC(C)CNC(=O)c1ccc(OCC(O)CNC(C)(C)C)c(Cl)c1 (stereo not given)
inactive: [1] 107 % of control | [2] 102 % of control

CC(=O)C1C(=O)C(=O)N(c2cc(C)ccc2O)C1=O (stereo not given)
inactive: [9] 106 % of control | [10] 107 % of control | dose: 200.0 mg/kg/injection, schedule: Q01DX009 (ip), vehicle: Klucel (hydroxypropylcellulose) (HPC) 104 % of control

Cc1cccc(C)c1OCc1n[nH]c(=S)n1-c1ccccc1
inactive: dose: 50.0 mg/kg/injection, schedule: Q01DX005 (ip), vehicle: Klucel (hydroxypropylcellulose) (HPC) 89 % of control | dose: 100.0 mg/kg/injection, schedule: Q01DX005 (ip), vehicle: Klucel (hydroxypropylcellulose) (HPC) 90 % of control | dose: 200.0 mg/kg/injection, schedule: Q01DX005 (ip), vehicle: Klucel (hydroxypropylcellulose) (HPC) 90 % of control

NC(=O)C(N)CCCC1NC(=S)N(c2ccccc2)C1=O (stereo not given)
inactive: dose: 60.0 mg/kg/injection, schedule: Q01DX005 (ip), vehicle: Klucel (hydroxypropylcellulose) (HPC) 92 % of control | dose: 120.0 mg/kg/injection, schedule: Q01DX005 (ip), vehicle: Klucel (hydroxypropylcellulose) (HPC) 93 % of control | dose: 240.0 mg/kg/injection, schedule: Q01DX005 (ip), vehicle: Klucel (hydroxypropylcellulose) (HPC) 86 % of control

Cc1c(Cl)cccc1NC(=O)c1cccc([N+](=O)[O-])c1O
inactive: [7] 102 % of control | [8] 93 % of control

N#C/C=C1/C=CC(O)CC1OC1OC(CO)C(O)C(O)C1O (stereo not given)
inactive: dose: 3.0 mg/kg/injection, schedule: Q01DX009 (ip), vehicle: saline 102 % of control | dose: 6.0 mg/kg/injection, schedule: Q01DX009 (ip), vehicle: saline 101 % of control | dose: 12.0 mg/kg/injection, schedule: Q01DX009 (ip), vehicle: saline 102 % of control | dose: 24.0 mg/kg/injection, schedule: Q01DX009 (ip), vehicle: saline 104 % of control

O=C1N(Cc2ccccc2)[C@H]2CS(=O)(=O)C[C@@H]2N1Cc1ccccc1
inactive: [3] 87 % of control | [4] 92 % of control | dose: 200.0 mg/kg/injection, schedule: Q01DX005 (ip), vehicle: saline with Tween-80 86 % of control

O=S1(=O)OCc2ccccc21
inactive: dose: 12.5 mg/kg/injection, schedule: Q01DX009 (ip), vehicle: Klucel (hydroxypropylcellulose) (HPC) 98 % of control | dose: 25.0 mg/kg/injection, schedule: Q01DX009 (ip), vehicle: Klucel (hydroxypropylcellulose) (HPC) 100 % of control | [9] 107 % of control | [10] 117 % of control

COC1CCC(O)C(C(=O)CN(C)C)C1 (stereo not given)
inactive: dose: 50.0 mg/kg/injection, schedule: Q01DX005 (ip), vehicle: saline 101 % of control | dose: 100.0 mg/kg/injection, schedule: Q01DX005 (ip), vehicle: saline 99 % of control | dose: 200.0 mg/kg/injection, schedule: Q01DX005 (ip), vehicle: saline 99 % of control
